Reference: PubChem BioAssay (NCI)
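96-well plates; 48 h exposure; 5 concentrations. Endpoints by linear interpolation between flanking doses. Not reached: highest tested concentration assigned. TGI marks complete inhibition of growth.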

Key:
Assay in all cases: NCI-60 cell line screen, 48 h
T-47D breast = tested on: T-47D breast
BT-549 breast = tested on: BT-549 breast
UACC-62 melanoma = tested on: UACC-62 melanoma
SNB-19 CNS = tested on: SNB-19 CNS
HCC-2998 colon = tested on: HCC-2998 colon
HOP-92 NSCLC = tested on: HOP-92 NSCLC
OVCAR-4 ovarian = tested on: OVCAR-4 ovarian
MOLT-4 leukemia = tested on: MOLT-4 leukemia
SK-MEL-2 melanoma = tested on: SK-MEL-2 melanoma
UO-31 renal = tested on: UO-31 renal
NCI-H460 lung = tested on: NCI-H460 lung
SF-268 CNS = tested on: SF-268 CNS
RXF 393 renal = tested on: RXF 393 renal
SF-539 CNS = tested on: SF-539 CNS
NCI-H522 lung = tested on: NCI-H522 lung
SK-MEL-28 melanoma = tested on: SK-MEL-28 melanoma
HL-60(TB) leukemia = tested on: HL-60(TB) leukemia

With `O=C1NC(=S)NC(=O)C1=Cc1ccc(-c2ccccc2)cc1` as the molecule, how does the TGI (T-47D breast) read?
Its TGI is over 100 µM.

What about the TGI (BT-549 breast) of the same molecule?
The TGI was over 100 µM.

What about the TGI (UACC-62 melanoma) of the same molecule?
The TGI was over 100 µM.

And the TGI (SNB-19 CNS)?
The TGI was over 100 µM.

What about the TGI (HCC-2998 colon) of the same molecule?
Its TGI is over 100 µM.

What about the TGI (HOP-92 NSCLC) of the same molecule?
The TGI was over 100 µM.

What about the TGI (OVCAR-4 ovarian) of the same molecule?
Its TGI is over 100 µM.

What about the TGI (MOLT-4 leukemia) of the same molecule?
Its TGI is over 100 µM.

And the TGI (SK-MEL-2 melanoma)?
Its TGI is over 100 µM.

And the TGI (UO-31 renal)?
Its TGI is over 100 µM.

What about the TGI (NCI-H460 lung) of the same molecule?
The TGI was over 100 µM.

And the TGI (SF-268 CNS)?
The TGI was over 100 µM.

What about the TGI (RXF 393 renal) of the same molecule?
The TGI was over 100 µM.

And the TGI (SF-539 CNS)?
Its TGI is over 100 µM.

`CC12C(=C(C#N)C(=N)N1c1ccc(Cl)c(Cl)c1)C=C(O)CC2SCCS(=O)(=O)O` (centres undefined) was tested. Which TGI (NCI-H522 lung) did it give?
The TGI was over 100 µM.

What about the TGI (UACC-62 melanoma) of the same molecule?
Its TGI is over 100 µM.

And the TGI (SNB-19 CNS)?
The TGI was over 100 µM.

What about the TGI (HCC-2998 colon) of the same molecule?
The TGI was over 100 µM.

And the TGI (HOP-92 NSCLC)?
The TGI was over 100 µM.

What about the TGI (OVCAR-4 ovarian) of the same molecule?
The TGI was over 100 µM.

What about the TGI (MOLT-4 leukemia) of the same molecule?
Its TGI is over 100 µM.

What about the TGI (SK-MEL-2 melanoma) of the same molecule?
Its TGI is over 100 µM.

What about the TGI (UO-31 renal) of the same molecule?
Its TGI is over 100 µM.

What about the TGI (SF-268 CNS) of the same molecule?
The TGI was over 100 µM.

What about the TGI (SK-MEL-28 melanoma) of the same molecule?
Its TGI is over 100 µM.

And the TGI (HL-60(TB) leukemia)?
Its TGI is over 100 µM.

What about the TGI (RXF 393 renal) of the same molecule?
The TGI was 94.7 µM.

What about the TGI (SF-539 CNS) of the same molecule?
The TGI was over 100 µM.

Which TGI (NCI-H522 lung) does the source give for `CCOc1ccc(/C=C(\Cl)c2ccc(OC)cc2)cc1` here?
Its TGI is over 100 µM.

What about the TGI (UACC-62 melanoma) of the same molecule?
The TGI was over 100 µM.

What about the TGI (SNB-19 CNS) of the same molecule?
Its TGI is over 100 µM.

And the TGI (HCC-2998 colon)?
The TGI was over 100 µM.

And the TGI (HOP-92 NSCLC)?
Its TGI is over 100 µM.

And the TGI (OVCAR-4 ovarian)?
Its TGI is over 100 µM.

And the TGI (MOLT-4 leukemia)?
Its TGI is over 100 µM.

And the TGI (UO-31 renal)?
The TGI was over 100 µM.

What about the TGI (SF-268 CNS) of the same molecule?
The TGI was over 100 µM.

What about the TGI (SK-MEL-28 melanoma) of the same molecule?
Its TGI is over 100 µM.

And the TGI (HL-60(TB) leukemia)?
The TGI was over 100 µM.

What about the TGI (RXF 393 renal) of the same molecule?
The TGI was over 100 µM.

And the TGI (SF-539 CNS)?
The TGI was over 100 µM.

Which results are given for `CC1(C)OCN(c2ccc(S(N)(=O)=O)cc2)Cn2c1nc1ccccc12`?
TGI (NCI-H522 lung): > 100 µM; TGI (UACC-62 melanoma): > 100 µM; TGI (SNB-19 CNS): > 100 µM; TGI (HCC-2998 colon): > 100 µM; TGI (HOP-92 NSCLC): > 100 µM; TGI (OVCAR-4 ovarian): > 100 µM; TGI (MOLT-4 leukemia): > 100 µM; TGI (SK-MEL-2 melanoma): > 100 µM; TGI (UO-31 renal): > 100 µM; TGI (NCI-H460 lung): > 100 µM; TGI (SF-268 CNS): > 100 µM; TGI (SK-MEL-28 melanoma): > 100 µM; TGI (HL-60(TB) leukemia): > 100 µM; TGI (RXF 393 renal): > 100 µM; TGI (SF-539 CNS): > 100 µM

For `O=C(Cn1c(=O)oc2ccc(C(=O)c3ccc(F)cc3)cc21)c1ccccc1`, which TGI (T-47D breast) is on record?
The TGI was over 100 µM.

What about the TGI (NCI-H522 lung) of the same molecule?
The TGI was over 100 µM.

What about the TGI (UACC-62 melanoma) of the same molecule?
Its TGI is over 100 µM.

What about the TGI (SNB-19 CNS) of the same molecule?
The TGI was over 100 µM.

What about the TGI (HCC-2998 colon) of the same molecule?
The TGI was over 100 µM.

What about the TGI (HOP-92 NSCLC) of the same molecule?
The TGI was over 100 µM.

What about the TGI (OVCAR-4 ovarian) of the same molecule?
The TGI was over 100 µM.

And the TGI (MOLT-4 leukemia)?
Its TGI is over 100 µM.

And the TGI (SK-MEL-2 melanoma)?
Its TGI is over 100 µM.

What about the TGI (UO-31 renal) of the same molecule?
The TGI was over 100 µM.

What about the TGI (NCI-H460 lung) of the same molecule?
Its TGI is over 100 µM.

What about the TGI (SF-268 CNS) of the same molecule?
Its TGI is over 100 µM.

What about the TGI (SK-MEL-28 melanoma) of the same molecule?
The TGI was over 100 µM.

And the TGI (HL-60(TB) leukemia)?
The TGI was over 100 µM.

What about the TGI (RXF 393 renal) of the same molecule?
Its TGI is over 100 µM.

And the TGI (SF-539 CNS)?
The TGI was over 100 µM.

Which results are given for `CCN(CC)c1ccc(C2Nc3ccc4ccccc4c3C3=C2C(=O)CCC3)cc1` (centres undefined)?
TGI (T-47D breast): > 100 µM; TGI (BT-549 breast): > 100 µM; TGI (UACC-62 melanoma): > 100 µM; TGI (SNB-19 CNS): > 100 µM; TGI (HCC-2998 colon): > 100 µM; TGI (OVCAR-4 ovarian): 46.4 µM; TGI (MOLT-4 leukemia): > 100 µM; TGI (SK-MEL-2 melanoma): > 100 µM; TGI (UO-31 renal): > 100 µM; TGI (NCI-H460 lung): > 100 µM; TGI (SF-268 CNS): > 100 µM; TGI (SK-MEL-28 melanoma): > 100 µM; TGI (RXF 393 renal): 59.1 µM; TGI (SF-539 CNS): 28.1 µM

Which TGI (NCI-H522 lung) does the source give for `Oc1cc(CN2CCOCCOCCOCCOCC2)c(O)cc1CN1CCOCCOCCOCCOCC1` here?
Its TGI is 31.6 µM.

And the TGI (UACC-62 melanoma)?
Its TGI is over 72.2 µM.

What about the TGI (SNB-19 CNS) of the same molecule?
The TGI was over 100 µM.

What about the TGI (HCC-2998 colon) of the same molecule?
Its TGI is over 100 µM.

What about the TGI (HOP-92 NSCLC) of the same molecule?
Its TGI is 49.7 µM.

What about the TGI (OVCAR-4 ovarian) of the same molecule?
The TGI was 34 µM.

And the TGI (MOLT-4 leukemia)?
Its TGI is 52.6 µM.

What about the TGI (SK-MEL-2 melanoma) of the same molecule?
The TGI was over 93.4 µM.

And the TGI (UO-31 renal)?
The TGI was over 100 µM.

What about the TGI (NCI-H460 lung) of the same molecule?
Its TGI is over 100 µM.

What about the TGI (SF-268 CNS) of the same molecule?
The TGI was 96.8 µM.

And the TGI (SK-MEL-28 melanoma)?
The TGI was 54.7 µM.

What about the TGI (HL-60(TB) leukemia) of the same molecule?
Its TGI is 52.4 µM.

And the TGI (RXF 393 renal)?
Its TGI is 60.5 µM.

And the TGI (SF-539 CNS)?
The TGI was over 100 µM.

Which results are given for `CSc1nn(C)cc2nc(C)nc1-2`?
TGI (T-47D breast): > 100 µM; TGI (BT-549 breast): > 100 µM; TGI (UACC-62 melanoma): > 100 µM; TGI (SNB-19 CNS): > 100 µM; TGI (MOLT-4 leukemia): > 100 µM; TGI (SK-MEL-2 melanoma): > 100 µM; TGI (UO-31 renal): > 100 µM; TGI (NCI-H460 lung): > 100 µM; TGI (SF-268 CNS): > 100 µM; TGI (SK-MEL-28 melanoma): > 100 µM; TGI (HL-60(TB) leukemia): > 100 µM; TGI (RXF 393 renal): > 100 µM; TGI (SF-539 CNS): > 100 µM
